Patent publication US20110195910A1, “USE OF TOCOTRIENOL COMPOSITION FOR THE PREVENTION OF CANCER” (DAVOS LIFE SCIENCE PTE. LTD., priority 2008, published 2011)

Columns and labels:
MDA-MB-231 cells = assay: Matrigel-invasion assay, MDA-MB-231 cells; type: cell-based, human; conditions: MDA-MB-231, 24 hrs
Procedure: 1.1.4 Matrigel-invasion assay—Matrigel-invasion assay was performed according to a previously published method with modifications. Briefly, cells were pre-incubated in a serum-free RPMI 1640 medium with or without γ-T3 isomers for 24 hrs. Cells (2.5×10^5) resuspended in 500 μl of serum-free RPMI 1640 containing 0.1% bovine serum albumin (BSA) were then added to the upper chamber of a 8 μm pore size insert (Millipore, Bedford, Mass.) manually coated with Matrigel (0.5 mg/ml) (BD Bioscience, Bedford, Mass.). Five hundred μl of invasion buffer containing fibronectin (10 μg/ml) and RPMI 1640 supplemented with 10% FCS were added in the lower chamber as a chemo-attractant. Cells were incubated at 37° C. for 24 hrs in 5% CO2 humidified conditions. At the end of incubation period, inserts were stained with Diff-Quick staining solution (Fischer Scientific). Non-invaded cells on the inside of the insert were scraped off with a cotton swab. Cell invasions were then examined by a phase-contrast microscope. The invaded cells were extracted using extraction buffer (Millipore, Bedford, Mass.) and the cell number was estimated based on absorbance at 595 nm.
3.1.7 Flow cytometry was carried out as described above under item 1.1.3. Matrigel-invasion assay was carried out as described above under item 1.1.4. Western blotting was carried out as described above under item 1.1.5.

G361 cells = assay: Western blotting of epithelial/mesenchymal markers, G361 cells; type: cell-based; conditions: G361, 24 hrs
Procedure: 1.1.5 Western blotting—Detailed protocols have been described previously and are known in the art. Briefly, cell lysates were prepared by suspending cell pellets in lysis buffer [50 mmol/l Tris-HCl (pH 8.0), 150 mmol/l NaCl, 1% NP40, 0.5% deoxycholate, 0.1% SDS, 1 mg/ml aprotinin, 1 μg/ml leupeptin and 1 mmol/l phenylmethylsulfonyl fluoride]. For nuclear protein extraction, NucBuster™ protein extraction kit was used. Protein concentration was measured using the DC Protein Assay kit (Bio-Rad, Hercules, Calif.). Equal amount of protein (30 μg) was loaded onto a 10% SDS polyacrylamide gel for electrophoresis and then transferred onto a polyvinylidene difluoride membrane (Amersham, Piscataway, N.J.). The membrane was then incubated with primary antibodies for 1 hr at room temperature against E-cadherin (BD Biosciences, Bedford, Mass.), α-catenin, β-catenin, γ-catenin, Id-1, Id-3, EGFR, phosphor-c-jun, phosphor-ATF2, cleaved PARP, vimentin, α-smooth muscle actin, twist (Santa Cruz Biotechnology, Calif.), phosphor-IkB-alpha (Ser32/36), phosphor-IKK alpha (Seri 80)/IKK beta (Ser181), phosphor-SAPK/JNK (Thr183/Tyr185) G9, SAPK/JNK, NF-kB p65 (5A5) (Cell Signaling Technology Inc, Beverly, Mass.), Snail (Abcam). […] Expression of β-actin and histone H1 were assessed as an internal loading control for total cell lysate and nuclear protein lysate respectively.

[1] = Serum-based toxicity assay; type: in vivo, C57BL/6 black mice; conditions: 5 dose i.p. injections per week containing 1 mg
Procedure: 4.1.8 Serum-based toxicity assay—Ten C57BL/6 black mice were given 5 dose intraperitoneal (i.p) injections per week containing 1 mg of γ-tocotrienol or DMSO blank. Mice were sacrificed by cardiac bleeding and the serum was extracted by method described above. Serum level of the biomarkers albumin, creatine, alanine transaminase ALT, aspartate aminotransferase AST, urea and alkaline phosphatase ALP were then measured by the colorimetric-based detection kits purchased from RANDOX laboratories Ltd. (Crumlin, United Kingdom).

[2] = tested on: PC-3-Luc prostate cancer xenograft; assay: PC-3-Luc prostate cancer xenograft model; type: in vivo, BALB/c athymic nude mice; conditions: γ-T3 50 mg/kg/day, Docetaxel 7.5 mg/kg/week; by day 14th after start of treatment; control 620±10
Procedure: 4.1.3 Establishment of the PC-3 prostate cancer xenograft model—Bioluminescent PC-3-Luc human prostate cancer cell line were generated according to known methods. Briefly, cDNA encoding the luciferase gene was cloned into the pLenti-6/V5. The construct was co-transfected with the packaging mix into HEK293 and lentivirus were collected and used for infecting PC-3 cells. Transfectants were obtained as a pool (PC-3-Luc) by selection with 10 μg/mL of Blasticidine for 1 week. The animal experimental protocol was approved by NACLAR (National Advisory Committee for Laboratory Animal Research) Guideline of Singapore for proper and humane use of animals. Male BALB/c athymic nude mice (4-5 weeks old, 18-22 g) were purchased from The Jackson Laboratory (Bar Harbor, Me., USA). […]
Nude mice bearing similar tumor sizes of about 100 mm^3 (after 2 weeks inoculation) were selected and randomly divided into three groups (n=5 per group); control (DMSO as vehicle), γ-T3 (50 mg/kg/d) and combination treatment of γ-T3 and Docetaxel (50 mg of γ-T3/kg/d and 7.5 mg of Docetaxel/kg/wk). The mice were weighed as daily basic and the tumors were measured using a Digital Carbon Fiber Caliper (Fisher scientific, Pittsburgh, Pa.) at the same time. The tumor volume was calculated as 4/3*π*(mean diameter/2)^3. […]

SMILES: CC(C)=CCC/C(C)=C/CC/C(C)=C/CCC1(C)CCc2cc(O)c(C)c(C)c2O1 (centres unmarked) [γ-T3, 7,8-dimethyltocotrienol]
- invasion capability compared to untreated control (MDA-MB-231 cells): at least 2 -time lower
- E-cadherin and γ-catenin protein expression (G361 cells): up-regulated
- Snail and mesenchymal markers (vimentin, α-SMA and twist) expression (G361 cells): down-regulated
- toxicological changes in serum parameters (Alb, Cre, ALT, AST, Ure, ALP) [1]: no toxicological changes
- tumor volume [2]: 300±48 mm^3
